In the NIST ThermoML archive (doi:10.1016/j.jct.2004.12.008):
Numbers after ± are expanded uncertainties.

Columns and labels:
[1] = refractive index (Na D-line) (dimensionless); settings: 293.15 K; 101.33 kPa; Liquid; Standard Abbe refractometry
[2] = 101 kPa, Liquid
[3] = xn = mol fraction of the nth substance listed; settings: 101 kPa, Liquid

Compound	refractive index [1]	mass density ([2]; 293.15 K) [kg/m3]	mass density ([2]; 303.15 K) [kg/m3]	mass density ([2]; 313.15 K) [kg/m3]	mass density ([2]; 323.15 K) [kg/m3]	mass density ([3]; 293.15 K, x1 = 1) [kg/m3]	mass density ([3]; 303.15 K, x1 = 1) [kg/m3]	mass density ([3]; 313.15 K, x1 = 1) [kg/m3]	mass density ([3]; 323.15 K, x1 = 1) [kg/m3]	mass density ([2]; 333.15 K) [kg/m3]	mass density ([2]; 343.15 K) [kg/m3]	mass density ([2]; 353.15 K) [kg/m3]	mass density ([3]; 333.15 K, x1 = 1) [kg/m3]	mass density ([3]; 343.15 K, x1 = 1) [kg/m3]	also measured
Cc1ccccc1C [1,2-dimethylbenzene]	1.50573 ± 0.00072	878.6 ± 1.6	872.25 ± 1.7	859.67 ± 1.8	840.84 ± 1.9										
Cc1ccccc1C [1,2-dimethylbenzene] + O=[N+]([O-])c1ccccc1						878.6 ± 1.6	872.25 ± 1.7	859.67 ± 1.8	840.84 ± 1.9						
Cc1cccc(C)c1 [1,3-dimethylbenzene]	1.49735 ± 0.00082	864.2 ± 2.5	855.76 ± 2.6	847.11 ± 2.6	838.27 ± 2.7					829.22 ± 2.7	819.97 ± 2.8	810.51 ± 2.9			
Cc1cccc(C)c1 [1,3-dimethylbenzene] + O=[N+]([O-])c1ccccc1						864.2 ± 2.5	855.76 ± 2.6	847.11 ± 2.6	838.27 ± 2.7				829.22 ± 2.7	819.97 ± 2.8	mass density ([3]; 353.15 K, x1 = 1): 810.51 ± 2.9 kg/m3
Cc1ccc(C)cc1 [1,4-dimethylbenzene]	1.49577 ± 0.00075	861 ± 1.9	852.28 ± 2	843.58 ± 2.1	834.92 ± 2.1					826.27 ± 2.2	817.66 ± 2.3	809.07 ± 2.4			
Cc1ccc(C)cc1 [1,4-dimethylbenzene] + O=[N+]([O-])c1ccccc1						861 ± 1.9	852.28 ± 2	843.58 ± 2.1	834.92 ± 2.1				826.27 ± 2.2	817.66 ± 2.3	mass density ([3]; 353.15 K, x1 = 1): 809.07 ± 2.4 kg/m3
c1ccccc1 [benzene]	1.5009 ± 0.0007	877.8 ± 1.6	867.99 ± 1.7	857.87 ± 1.8	847.4 ± 1.9					836.59 ± 2	825.42 ± 2.1				
c1ccccc1 [benzene] + O=[N+]([O-])c1ccccc1						877.8 ± 1.6	867.99 ± 1.7	857.87 ± 1.8	847.4 ± 1.9				836.59 ± 2	825.42 ± 2.1	
CCc1ccccc1 [ethylbenzene]	1.4962 ± 0.0008	867.82 ± 14	858.6 ± 14	851.85 ± 15											
CCc1ccccc1 [ethylbenzene] + O=[N+]([O-])c1ccccc1						867.82 ± 14	858.6 ± 14	851.85 ± 15	847.58 ± 15				845.79 ± 15	846.48 ± 15	
O=[N+]([O-])c1ccccc1 [nitrobenzene]	1.55488 ± 0.00072	1202.95 ± 2.3	1193.56 ± 2.2	1183.37 ± 2.1	1172.38 ± 2					1160.59 ± 1.9	1148 ± 1.9	1134.61 ± 1.8			
O=[N+]([O-])c1ccccc1 [nitrobenzene] + C=Cc1ccccc1															mass density ([3]; 293.15 K, x2 = 0): 1202.95 ± 2.3 kg/m3; mass density ([3]; 303.15 K, x2 = 0): 1193.56 ± 2.2 kg/m3; mass density ([3]; 313.15 K, x2 = 0): 1183.37 ± 2.1 kg/m3; mass density ([3]; 323.15 K, x2 = 0): 1172.38 ± 2 kg/m3; mass density ([3]; 333.15 K, x2 = 0): 1160.59 ± 1.9 kg/m3; mass density ([3]; 343.15 K, x2 = 0): 1148 ± 1.9 kg/m3; mass density ([3]; 353.15 K, x2 = 0): 1134.61 ± 1.8 kg/m3
C=Cc1ccccc1 [styrene]	1.546 ± 0.0007	906 ± 1.4	896.44 ± 1.5	886.88 ± 1.6	877.32 ± 1.6					867.76 ± 1.7	858.2 ± 1.8	848.64 ± 1.9			
Cc1ccccc1 [toluene]	1.4965 ± 0.0008	866.75 ± 2.5	857.53 ± 2.6	848.25 ± 2.6	838.9 ± 2.7					829.5 ± 2.7	820.03 ± 2.8	810.5 ± 2.9			
Cc1ccccc1 [toluene] + O=[N+]([O-])c1ccccc1						866.75 ± 2.5	857.53 ± 2.6	848.25 ± 2.6	838.9 ± 2.7				829.5 ± 2.7	820.03 ± 2.8	mass density ([3]; 353.15 K, x1 = 1): 810.5 ± 2.9 kg/m3
